Reference: patent US20110218515A1, “Methods for Treating Acute Myocardial Infarctions and Associated Disorders” (The Regents of the University of California, priority 2009, published 2011)
Values joined by “and” are separate entries in the source; they are usually repeats but may differ in a detail not shown here. Equal entries are not always repeated.

Key:
[1] = tested on: ischemia-reperfusion rat model; details: in vivo
Description: After baseline echocardiography, thirty male Sprague-Dawley rats, ages 6-10 weeks, underwent myocardial infarction using an ischemia-reperfusion model. Briefly, rats were anesthetized using inhaled isoflurane (5% induction, 2.5% maintenance, O2 output 1 L/min) and positioned supine on an electrically warmed animal surgery platform. Rats were intubated using a 16-gauge i.v. catheter and then ventilated using a Harvard rodent respirator. After a left thoracotomy and pericardiotomy were performed, a 7-0 Ticron suture was introduced into the myocardium, using the left atrial appendage and right outflow tract as landmarks. The depth of entry was 2 mm, which was slightly greater than the level of the left coronary artery. Both suture ends were then threaded through a PE-90 polyethylene tube 6 in. in length to form a “snare loop” around the artery, closed by pulling on the free ends of the suture. […] The suture was then tightened to occlude the artery for 20 minutes and then removed to allow for reperfusion. The chest was then closed with 5-0 prolene suture, and the animal was allowed to recover. After one week and repeat echocardiography, rats were randomized to placebo rodent feed (control group, n=15) or rodent feed mixed with 1.2% pirfenidone (PFD) (treatment group, n=15) for four weeks. All experiments and data analyses were performed with the operator blinded to treatment group. […]

[2] = tested on: ischemia-reperfusion rat model; assay: Serial echocardiography in ischemia-reperfusion MI rats; format: in vivo, Sprague-Dawley rats; details: for LV ejection fraction at 5 weeks: 5 weeks post-MI, after four weeks feed with 1.2% pirfenidone
Description: In this example, a protocol is described for examining the ventricular function, extent of fibrosis and VT inducibility in an ischemia-reperfusion rat model after pirfenidone treatment. Ventricular function was assessed via echocardiography. VT inducibility was assessed by programmed stimulation and EP study. The electrophysiological properties were assessed using high-resolution optical mapping, and the extent of fibrosis was studied using standard histological techniques.
After baseline echocardiography, thirty male Sprague-Dawley rats, ages 6-10 weeks, underwent myocardial infarction using an ischemia-reperfusion model. Briefly, rats were anesthetized using inhaled isoflurane (5% induction, 2.5% maintenance, O2 output 1 L/min) and positioned supine on an electrically warmed animal surgery platform. Rats were intubated using a 16-gauge i.v. catheter and then ventilated using a Harvard rodent respirator. After a left thoracotomy and pericardiotomy were performed, a 7-0 Ticron suture was introduced into the myocardium, using the left atrial appendage and right outflow tract as landmarks. The depth of entry was 2 mm, which was slightly greater than the level of the left coronary artery. Both suture ends were then threaded through a PE-90 polyethylene tube 6 in. in length to form a “snare loop” around the artery, closed by pulling on the free ends of the suture. […] The suture was then tightened to occlude the artery for 20 minutes and then removed to allow for reperfusion. The chest was then closed with 5-0 prolene suture, and the animal was allowed to recover. After one week and repeat echocardiography, rats were randomized to placebo rodent feed (control group, n=15) or rodent feed mixed with 1.2% pirfenidone (PFD) (treatment group, n=15) for four weeks. All experiments and data analyses were performed with the operator blinded to treatment group.
At baseline, and at 1 wk and 5 wk after infarction, a commercially available high-resolution echocardiographic system (Vevo 660, VisualSonics, Toronto, ON, Canada) equipped with a 25-MHz mechanical transducer was used for echocardiography. Rats were placed supine on a warming platform, and ECG limb electrodes were attached. To minimize ultrasound attenuation, the chests were shaved and cleaned with a chemical hair remover (Nair). Aquasonic 100 gel (Parker Laboratories, Fairfield, N.J.) was applied to the thoracic surface to optimize visibility of the cardiac chambers. Parasternal long-axis and parasternal short-axis two-dimensional views were acquired.
Using the long-axis view, left ventricular (LV) end-systolic and end-diastolic volumes (ESV and EDV), as well as LV ejection fraction (LVEF), were calculated by using frames with the maximal and minimal cross-sectional area and width. The system software utilizes a formula based on a cylindrical-hemiellipsoid model (volume=8*area2÷3÷length). LVEF was calculated using the following formula: (EDV−ESV)/EDV*100. Fractional shortening (FS) was evaluated from the M mode of the parasternal long-axis view at the papillary muscle level on the basis of the percent changes of LV end-diastolic and end-systolic diameters. LV mass was estimated using the following equation at end diastole: LV mass=1.05*(epicardial volume−endocardial volume), where volume is based on the cylindrical-hemiellipsoid model. These evaluations of LV function in the rodent are well validated. Echocardiographic acquisition and analysis were obtained while blinded to the treatment group.

Cc1ccc(=O)n(-c2ccccc2)c1 [pirfenidone]
mortality, CHF, or arrhythmias in treated animals [1]: No increased mortality, CHF, or arrhythmias | LV ejection fraction at 1 week ([2]; 1 week post-MI, at randomization before treatment): 54% | LV ejection fraction at 5 weeks [2]: 45% | LV ejection fraction at 5 weeks ([2]; listed as PFD): 36±15% | LV ejection fraction, starting value of the decline ([2]; baseline echocardiography, before treatment): 66±5% | percent decrease in ejection fraction from week 1 to week 5 ([2]; treatment period, feed with 1.2% pirfenidone, controls 24.3%, p=0.005): 8.6% and 8%
